From paper PMC9090415, “Discovery of small molecule inhibitors of Plasmodium falciparum apicoplast DNA polymerase” (Journal of Enzyme Inhibition and Medicinal Chemistry, 2022)

Target: P. falciparum apicoplast DNA polymerase (Pf-apPOL) (Plasmodium falciparum, UniProt Q8ILY1)
Test: Fluorescence-based high-throughput DNA polymerase assay (molecular beacon), primary screen and dose-response
Assay type: biochemical
Conditions: for DNA Pol: unit not given, 90 min, 10 µM; for % inhibition Apo pol 10' 2.5 / % inhibition Apo pol 10' 5 / % inhibition Apo pol 10' 10 / % inhibition Apo pol 10' 20 / % inhibition Apo pol 10' 40 / % inhibition Apo pol 10' 80: read at 10'; for % inhibition Apo pol 10' 2.5 / % inhibition Apol 90' 2.5 / % inhibition apPOL 180' 2.5 / % inhibition Apo pol 5' 2.5 / % inhibition Apol 40' 2.5 / % inhibition ApPOL 90' 2.5: concentration 2.5; for % inhibition Apo pol 10' 5 / % inhibition Apol 90' 5 / % inhibition apPOL 180' 5 / % inhibition Apo pol 5' 5 / % inhibition Apol 40' 5 / % inhibition ApPOL 90' 5: concentration 5; for % inhibition Apo pol 10' 80 / % inhibition Apol 90' 80 / % inhibition apPOL 180' 80 / % inhibition Apo pol 5' 80 / % inhibition Apol 40' 80 / % inhibition ApPOL 90' 80: concentration 80; for % inhibition Apol 90' 2.5 / % inhibition Apol 90' 5 / % inhibition Apol 90' 10 / % inhibition Apol 90' 20 / % inhibition Apol 90' 40 / % inhibition Apol 90' 80 / % inhibition ApPOL 90' 2.5 / % inhibition ApPOL 90' 5 / % inhibition ApPOL 90' 10 / % inhibition ApPOL 90' 20 / % inhibition ApPOL 90' 40 / % inhibition ApPOL 90' 80: read at 90'; for % inhibition apPOL 180' 2.5 / % inhibition apPOL 180' 5 / % inhibition apPOL 180' 10 / % inhibition apPOL 180' 20 / % inhibition apPOL 180' 40 / % inhibition apPOL 180' 80: read at 180'; for % inhibition Apo pol 5' 2.5 / % inhibition Apo pol 5' 5 / % inhibition Apo pol 5' 10 / % inhibition Apo pol 5' 20 / % inhibition Apo pol 5' 40 / % inhibition Apo pol 5' 80: read at 5'; for % inhibition Apol 40' 2.5 / % inhibition Apol 40' 5 / % inhibition Apol 40' 10 / % inhibition Apol 40' 20 / % inhibition Apol 40' 40 / % inhibition Apol 40' 80: read at 40'
Procedure, shortened: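 Single-point screening used 10 µM compound with 20 nM polymerase, 20 nM hairpin substrate and 6 µM dNTPs for 90 min at 25 °C. Confirmatory titrations (2.5–80 µM) followed fluorescence at three times, and IC50 was derived from a fit including a cooperativity term n.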

[1] = 186 hits, DNA Pol (screen value)

Sequence of P. falciparum apicoplast DNA polymerase (Pf-apPOL) (Q8ILY1 entry or part of it): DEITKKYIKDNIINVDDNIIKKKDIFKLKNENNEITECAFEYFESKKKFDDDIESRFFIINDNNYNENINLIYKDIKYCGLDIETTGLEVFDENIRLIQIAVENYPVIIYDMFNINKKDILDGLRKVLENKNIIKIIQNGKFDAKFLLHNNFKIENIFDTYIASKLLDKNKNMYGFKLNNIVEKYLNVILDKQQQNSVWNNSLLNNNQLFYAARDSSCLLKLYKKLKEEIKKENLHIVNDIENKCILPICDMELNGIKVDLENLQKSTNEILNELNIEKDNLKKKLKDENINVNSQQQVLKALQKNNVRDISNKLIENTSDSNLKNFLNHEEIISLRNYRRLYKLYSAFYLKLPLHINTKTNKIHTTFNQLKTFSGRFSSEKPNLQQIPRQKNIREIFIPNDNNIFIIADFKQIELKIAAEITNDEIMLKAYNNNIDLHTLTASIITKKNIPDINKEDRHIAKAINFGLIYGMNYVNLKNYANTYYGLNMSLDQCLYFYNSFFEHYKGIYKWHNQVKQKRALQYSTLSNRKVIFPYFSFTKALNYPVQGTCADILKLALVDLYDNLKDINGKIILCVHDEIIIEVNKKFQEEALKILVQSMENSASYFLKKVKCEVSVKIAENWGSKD

## O=C1CSC2=NC3=C(CCc4ccccc43)C(c3cccs3)N12 (stereo not shown) [Molecule 59, O=C1CSC2=NC3=C(C(N12)c1cccs1)CCc1c3cccc1]
[1]
  DNA Pol: 63
'DNA Pol' (screen value)
  DNA Pol: 63
DRC-1
  % inhibition Apo pol 10' 2.5: 4.043%
  % inhibition Apo pol 10' 5: 24.0896%
  % inhibition Apo pol 10' 80: 63.2791%
  % inhibition Apol 90' 2.5: -1.656%
  % inhibition Apol 90' 5: 10.7696%
  % inhibition Apol 90' 80: 67.4831%
  % inhibition apPOL 180' 2.5: -6.428%
  % inhibition apPOL 180' 5: -0.2424%
  % inhibition apPOL 180' 80: 61.292%
DRC-1, concentration 10
  % inhibition Apo pol 10' 10: 41.1279%
  % inhibition Apol 90' 10: 22.0098%
  % inhibition apPOL 180' 10: 9.04%
DRC-1, concentration 20
  % inhibition Apo pol 10' 20: 53.1812%
  % inhibition Apol 90' 20: 35.5266%
  % inhibition apPOL 180' 20: 18.673%
DRC-1, concentration 40
  % inhibition Apo pol 10' 40: 67.0288%
  % inhibition Apol 90' 40: 60.0258%
  % inhibition apPOL 180' 40: 46.5795%
DRC-2, concentration 10
  % inhibition Apo pol 5': 28%
  % inhibition Apol 40': 28%
  % inhibition Apo pol 5' 10: 28%
  % inhibition Apol 40' 10: 28%
  % inhibition ApPOL 90' 10: 22%
  % inhibition apPOL 180' 10: 11%
DRC-2, concentration 40
  % inhibition Apol 40': 45%
  % inhibition ApPOL 90': 45%
  % inhibition Apo pol 5' 40: 31%
  % inhibition Apol 40' 40: 45%
  % inhibition ApPOL 90' 40: 45%
  % inhibition apPOL 180' 40: 38%
DRC-2
  % inhibition Apo pol 5' 2.5: 3.73%
  % inhibition Apo pol 5' 5: 15%
  % inhibition Apo pol 5' 80: 23%
  % inhibition Apol 40' 2.5: 3%
  % inhibition Apol 40' 5: 14%
  % inhibition Apol 40' 80: 48%
  % inhibition ApPOL 90' 2.5: -1.13%
  % inhibition ApPOL 90' 5: 10%
  % inhibition ApPOL 90' 80: 52%
  % inhibition apPOL 180' 2.5: -8%
  % inhibition apPOL 180' 5: 2.64%
  % inhibition apPOL 180' 80: 55%
DRC-2, concentration 20
  % inhibition Apo pol 5' 20: 33%
  % inhibition Apol 40' 20: 39%
  % inhibition ApPOL 90' 20: 35%
  % inhibition apPOL 180' 20: 24%

## Cc1cc2[nH]c(C(=O)Nc3ccc(F)cc3)c(CN3CCOCC3)c2s1 [Molecule 60, Fc1ccc(cc1)NC(=O)c1[nH]c2c(c1CN1CCOCC1)sc(c2)C]
[1]
  DNA Pol: 24
'DNA Pol' (screen value)
  DNA Pol: 24
DRC-1
  % inhibition Apo pol 10' 2.5: -2.4883%
  % inhibition Apo pol 10' 5: 6.203%
  % inhibition Apo pol 10' 80: 76.8011%
  % inhibition Apol 90' 2.5: -5.041%
  % inhibition Apol 90' 5: 0.952%
  % inhibition Apol 90' 80: 73.0205%
  % inhibition apPOL 180' 2.5: -7.929%
  % inhibition apPOL 180' 5: -4.0377%
  % inhibition apPOL 180' 80: 63.0707%
DRC-1, concentration 10
  % inhibition Apo pol 10' 10: 25.0572%
  % inhibition Apol 90' 10: 13.5518%
  % inhibition apPOL 180' 10: 4.226%
DRC-1, concentration 20
  % inhibition Apo pol 10' 20: 44.6815%
  % inhibition Apol 90' 20: 29.567%
  % inhibition apPOL 180' 20: 14.1958%
DRC-1, concentration 40
  % inhibition Apo pol 10' 40: 69.9494%
  % inhibition Apol 90' 40: 56.5635%
  % inhibition apPOL 180' 40: 39.4222%
DRC-2, concentration 40
  % inhibition Apo pol 5': 38%
  % inhibition Apo pol 5' 40: 38%
  % inhibition Apol 40' 40: 57%
  % inhibition ApPOL 90' 40: 59%
  % inhibition apPOL 180' 40: 53%
DRC-2, concentration 20
  % inhibition ApPOL 90': 38%
  % inhibition Apo pol 5' 20: 33%
  % inhibition Apol 40' 20: 40%
  % inhibition ApPOL 90' 20: 38%
  % inhibition apPOL 180' 20: 28%
DRC-2
  % inhibition Apo pol 5' 2.5: -2.34%
  % inhibition Apo pol 5' 5: 3.5%
  % inhibition Apo pol 5' 80: 36%
  % inhibition Apol 40' 2.5: 0.384%
  % inhibition Apol 40' 5: 3.72%
  % inhibition Apol 40' 80: 60%
  % inhibition ApPOL 90' 2.5: 0.312%
  % inhibition ApPOL 90' 5: 2.6%
  % inhibition ApPOL 90' 80: 65%
  % inhibition apPOL 180' 2.5: -2.7%
  % inhibition apPOL 180' 5: -0.247%
  % inhibition apPOL 180' 80: 66%
DRC-2, concentration 10
  % inhibition Apo pol 5' 10: 20%
  % inhibition Apol 40' 10: 21%
  % inhibition ApPOL 90' 10: 18%
  % inhibition apPOL 180' 10: 11%
